Reference: the supplement of paper PMC13380429

Columns and labels:
Conditions in all cases: 72 h
U2OS [1] = assay: drug sensitivity score (DSS) for viability; higher = more toxic; extreme values may be limits of the assay
Calu-3 [2] = assay: as above
HepG2 [3] = assay: as above
Caco-2 [4] = assay: as above
U2OS [5] = assay: cell viability relative to DMSO; higher = less toxic
Calu-3 [6] = assay: as above
HepG2 [7] = assay: as above
Caco-2 [8] = assay: as above
U2OS [9] = assay: relative viability EC50 (midpoint between 100% and the lowest measured viability); higher = less toxic
Calu-3 [10] = assay: as above
HepG2 [11] = assay: as above
Caco-2 [12] = assay: as above
Vero E6 [13] = assay: drug sensitivity score (DSS) for viability; higher = more toxic; extreme values may be limits of the assay
Vero E6 [14] = assay: cell viability relative to DMSO; higher = less toxic
Vero E6 [15] = assay: relative viability EC50 (midpoint between 100% and the lowest measured viability); higher = less toxic

Structure (SMILES)	drug sensitivity score (U2OS [1])	drug sensitivity score (Calu-3 [2])	drug sensitivity score (HepG2 [3])	drug sensitivity score (Caco-2 [4])	cell viability (U2OS [5]; 1 nM)	cell viability (U2OS [5]; 10 nM)	cell viability (U2OS [5]; 100 nM)	cell viability (U2OS [5]; 1000 nM)	cell viability (U2OS [5]; 10000 nM)	cell viability (Calu-3 [6]; 1 nM)	cell viability (Calu-3 [6]; 10 nM)	cell viability (Calu-3 [6]; 100 nM)	cell viability (Calu-3 [6]; 1000 nM)	cell viability (Calu-3 [6]; 10000 nM)	cell viability (HepG2 [7]; 1 nM)	cell viability (HepG2 [7]; 10 nM)	cell viability (HepG2 [7]; 100 nM)	cell viability (HepG2 [7]; 1000 nM)	cell viability (HepG2 [7]; 10000 nM)	cell viability (Caco-2 [8]; 1 nM)	cell viability (Caco-2 [8]; 10 nM)	cell viability (Caco-2 [8]; 100 nM)	cell viability (Caco-2 [8]; 1000 nM)	cell viability (Caco-2 [8]; 10000 nM)	relative viability EC50 (U2OS [9])	relative viability EC50 (Calu-3 [10])	relative viability EC50 (HepG2 [11])	relative viability EC50 (Caco-2 [12])	drug sensitivity score (Vero E6 [13])	cell viability (Vero E6 [14]; 1 nM)	cell viability (Vero E6 [14]; 10 nM)	cell viability (Vero E6 [14]; 100 nM)	cell viability (Vero E6 [14]; 1000 nM)	cell viability (Vero E6 [14]; 10000 nM)	relative viability EC50 (Vero E6 [15])
C[N+](C)(C)CCCCCC[N+](C)(C)C [hexamethonium]	0	0	0	0	100%	102%	96.2%	103%	99.8%	86.3%	97.1%	101%	108%	103%	109%	96.7%	97.6%	95.3%	96.6%	97.3%	104%	98.2%	99.4%	100%	> 10 µM	> 10 µM	> 10 µM	> 10 µM							
CC1(C)CCC(C)(C)c2cc(C(=O)Nc3ccc(C(=O)O)cc3)ccc21 [AM-580]	0	7.7	0	0	100%	96.7%	95.6%	90.5%	95.6%	89.5%	83.4%	71.6%	77.3%	81.6%	92.6%	101%	101%	102%	97.3%	95.5%	99.1%	98.1%	95.6%	93.9%	> 10 µM		> 10 µM	> 10 µM	0	103%	106%	102%	101%	96.5%	> 10 µM
CCCCCCCCCCCC(=O)N(CCO)CCO [lauric-diethanolamide]	0		0	0	99.4%	95.9%	101%	98.5%	102%						94%	99.1%	93.5%	96.8%	90.1%	107%	90.1%	98.7%	92.7%	101%	> 10 µM		> 10 µM	> 10 µM	0	104%	101%	103%	102%	97.3%	> 10 µM
O=C(NC[C@H]1CN(c2ccc(N3CCOCC3=O)cc2)C(=O)O1)c1ccc(Cl)s1 [Rivaroxaban (Xarelto)]	0	0	0	0	103%	99.1%	102%	96%	102%	96.4%	89.7%	105%	102%	96.4%	102%	102%	97.1%	110%	90.9%	92.6%	95.4%	101%	86.9%	91%	> 10 µM	> 10 µM	> 10 µM	> 10 µM							
CC(=O)c1cc2c(o1)C(=O)c1ccccc1C2=O [napabucasin]	5.8	1.8	18.4	10.7	102%	98.5%	102%	98.9%	-0.4%	124%	109%	101%	106%	56.4%	102%	109%	97.1%	-0.9%	-0.3%	103%	98.5%	95.3%	55.8%	0.5%	3.07 µM		0.291 µM	1.13 µM	7.4	88.7%	99.5%	89.6%	88.8%	-0.4%	2.24 µM
CS(=O)(=O)Nc1ccc(-c2coc3cc(OCc4cccc(C(=O)O)c4)ccc3c2=O)cc1	0	0	0	0	97.8%	99.1%	107%	105%	103%	108%	90.4%	96.2%	101%	103%	92.6%	107%	101%	109%	93.2%	94.9%	97.6%	97.7%	97.1%	101%	> 10 µM	> 10 µM	> 10 µM	> 10 µM							
